In PMC4839570, “Novel Anthra[1,2-c][1,2,5]Thiadiazole-6,11-Diones as Promising Anticancer Lead Compounds: Biological Evaluation, Characterization & Molecular Targets Determination” (PLoS ONE, 2016):
Where two headings read alike, the source gives them in different places.

What was measured:
IGROV1 = experiment: NCI-60 cytotoxicity screen; type: cell-based
786-0 = experiment: NCI-60 cytotoxicity screen; type: cell-based
ACHN = experiment: NCI-60 cytotoxicity screen; type: cell-based
SNB-75 = experiment: NCI-60 cytotoxicity screen; type: cell-based
MDA-MB-468 = experiment: NCI-60 cytotoxicity screen
UO-31 = experiment: NCI-60 cytotoxicity screen; type: cell-based
[1] = system: NF-κB p65 subunit in OVCAR-3 cells; experiment: Western blotting of nuclear and cytosolic fractions; type: cell-based, human; conditions: OVCAR-3 nuclear fraction
Description: Treated cells were fractionated into nuclear and cytosolic fractions using the Nuclear/Cytosol fractionation kit (BioVision), separated by electrophoresis in SDS-PAGE gels and transferred to Amersham Hybond-P PVDF Membranes. Membranes were probed with either anti-NF-κB p65 rabbit monoclonal primary antibody [E379] Abcam # ab32536, anti-TATA binding protein (TBP) mouse antibody (1TBP18), or anti-beta Tubulin rabbit antibody [NB600-936]. After washing, membranes were incubated with either goat anti-rabbit IgG H&L (HRP) (ab6721), or rabbit anti-mouse IgG H&L (HRP) (ab6728) secondary antibodies. Membranes were developed using the Immobilon Western chemiluminescent HRP substrate kit. Protein bands were normalized to either the beta Tubulin or TBP bands and quantified using ImageJ software.

CCRF-CEM = experiment: NCI-60 cytotoxicity screen; type: cell-based
MKN1 = experiment: JFCR-39 cytotoxicity screen; type: cell-based
MKN45 = experiment: JFCR-39 cytotoxicity screen; type: cell-based
SN12C = experiment: NCI-60 cytotoxicity screen; type: cell-based
OVCAR-8 = experiment: JFCR-39 cytotoxicity screen; type: cell-based
SF-268 [2] = experiment: JFCR-39 cytotoxicity screen; type: cell-based
[3] = system: NCI 60 human cancer cell lines; experiment: NCI-60 screen, means, ranges and selectivity over panels; type: cell-based; conditions: for GI50: Homo sapiens
Description: Both NSC745885 and NSC757963 satisfied the pre-determined threshold inhibition criteria of the NCI-60 One-Dose Screening, so they were tested against the panels of 60 cancer cell lines of NCI (NCI-60) and 39 cancer cell lines of JFCR (JFCR-39), each cell line was tested at five small doses of our compounds. Results are expressed as the 50% growth inhibition concentration (GI50), the 50% lethal concentration (LC50) and the total growth inhibition (TGI), compared to the values of untreated control cells.
To characterize the selectivity of NSC745885 and NSC757963 further among the different types of cancer, we determined their selectivity ratios towards each cell line subpanel used in the cytotoxicity experiments. […] The promising activity of this compound is evident from the small mean GI50 values. […] The strongest activity was towards the leukemia subpanel and the least one was towards the colon cancer subpanel. […] The strongest activity was towards the melanoma subpanel and the least one was towards the colon cancer subpanel.
All cell lines were published before.

DMS273 = experiment: JFCR-39 cytotoxicity screen; type: cell-based
SF-268 [4] = experiment: NCI-60 cytotoxicity screen; type: cell-based
MCF-7 = experiment: JFCR-39 cytotoxicity screen; type: cell-based
RPMI-8226 = experiment: NCI-60 cytotoxicity screen; type: cell-based
KM12 = experiment: NCI-60 cytotoxicity screen; type: cell-based
MDA-MB-231/ATCC = experiment: NCI-60 cytotoxicity screen; type: cell-based
OVCAR-3 = conditions: five-dose
[5] = Homo sapiens, Fig 7, read-out: mean log10 of the GI50 values (converted)
[6] = Homo sapiens, five-dose, read-out: GI50
[7] = Homo sapiens, five-dose, read-out: LC50 (the source's name)
[8] = Homo sapiens, read-out: LC50 (the source's name)

Work on `O=C1c2ccccc2C(=O)c2c1cc(Cl)c1nsnc21` [NSC757963] yielded a GI50 (IGROV1; Homo sapiens, IGROV-1, Fig 7, read-out: mean log10 of the GI50 values (converted)) of 2510 nM, a GI50 (IGROV1; Homo sapiens, IGROV-1, five-dose, read-out: GI50) of 3300 nM and a CC50 (IGROV1; Homo sapiens, IGROV-1, five-dose, read-out: LC50 (the source's name)) of 45.7 µM. It also gave a TGI (IGROV1; five-dose) of 15.6 µM, a TGI (786-0; 786–0, five-dose) of 31.8 µM and a GI50 (786-0; Homo sapiens, 786-0, Fig 7, read-out: mean log10 of the GI50 values (converted)) of 6.61 µM. For the same compound, the GI50 (786-0; Homo sapiens, 786–0, five-dose, read-out: GI50) was 17.2 µM, the CC50 (786-0; Homo sapiens, 786–0, five-dose, read-out: LC50 (the source's name)) was 58.8 µM and the GI50 (ACHN; [5]) was 2000 nM. The GI50 (ACHN; [6]) was 2000 nM, the CC50 (ACHN; [7]) was 7.74 µM and the TGI (ACHN; five-dose) was 3.93 µM. It also gave a GI50 (SNB-75; [5]) of 1910 nM, a GI50 (SNB-75; [6]) of 2170 nM and a CC50 (SNB-75; [7]) of 69.1 µM. It also gave a TGI (SNB-75; five-dose) of 6.89 µM, a GI50 (MDA-MB-468; Homo sapiens, MDA-MB-468) of 1380 nM and a CC50 (MDA-MB-468; Homo sapiens, MDA-MB-468, read-out: LC50) of 6.25 µM. For the same compound, the inhibition at 10 µM (MDA-MB-468; Homo sapiens, MDA-MB-468, read-out: growth inhibition) was 88.3%, the GI50 (MDA-MB-468; Homo sapiens, MDA-MB-468, read-out: mean log10 of the GI50 values (converted)) was 631 nM and the TGI (MDA-MB-468; MDA-MB-468, five-dose) was 2.93 µM. The GI50 (UO-31; [5]) was 6.31 µM, the GI50 (UO-31; [6]) was 14 µM and the CC50 (UO-31; [7]) was 52.4 µM. For the same compound, the TGI (UO-31; five-dose) was 27.1 µM, the “dose of almost complete inhibition of nuclear NF-κB p65 expression” value [1] was 2.4 µM and the GI50 (CCRF-CEM; [5]) was 389 nM. It also gave a GI50 (CCRF-CEM; [6]) of 330 nM, a CC50 (CCRF-CEM; [7]) greater than 100 µM and a TGI (CCRF-CEM; five-dose) of 2.37 µM. It also gave a TGI (MKN1) of 3.4 µM, a GI50 (MKN1; Homo sapiens, MKN-1) of 1800 nM and a CC50 (MKN1; Homo sapiens, MKN-1, read-out: LC50 (the source's name)) of 6.6 µM. For the same compound, the TGI (MKN45) was 5.1 µM, the GI50 (MKN45; Homo sapiens, MKN-45) was 2000 nM and the CC50 (MKN45; Homo sapiens, MKN-45, read-out: LC50 (the source's name)) was 17 µM. The GI50 (SN12C; [5]) was 2290 nM, the GI50 (SN12C; [6]) was 3270 nM and the CC50 (SN12C; [7]) was 36.1 µM. It also gave a TGI (SN12C; five-dose) of 13.1 µM, a TGI (OVCAR-8) of 4.8 µM and a GI50 (OVCAR-8; Homo sapiens) of 2100 nM. For the same compound, the CC50 (OVCAR-8; [8]) was greater than 100 µM, the TGI (SF-268 [2]) was 4.0 µM and the GI50 (SF-268 [2]; Homo sapiens) was 2000 nM. For the same compound, the CC50 (SF-268 [2]; [8]) was 6.5 µM, the “selectivity ratios of the NCI subpanels other than leukemia” value [3] was “less than 3” and the GI50 ([3]; Fig 7, read-out: MG-MID of mean log10 GI50 (converted)) was 4.47 µM. The GI50 ([3]; NCI Breast Cancer, read-out: Mean GI50 of subpanel) was 5.11 µM, the GI50 ([3]; NCI CNS Cancer, read-out: Mean GI50 of subpanel) was 7.71 µM and the GI50 ([3]; NCI Colon Cancer, read-out: Mean GI50 of subpanel) was 11.4 µM. The GI50 ([3]; NCI Leukemia, read-out: Mean GI50 of subpanel) was 1.4 µM, the GI50 ([3]; NCI Melanoma, read-out: Mean GI50 of subpanel) was 8.44 µM and the GI50 ([3]; NCI Non-Small Cell Lung Cancer, read-out: Mean GI50 of subpanel) was 20.7 µM. It also gave a GI50 ([3]; NCI Ovarian Cancer, read-out: Mean GI50 of subpanel) of 6.77 µM, a GI50 ([3]; NCI Prostate Cancer, read-out: Mean GI50 of subpanel) of 8.53 µM and a GI50 ([3]; NCI Renal Cancer, read-out: Mean GI50 of subpanel) of 18.5 µM. The GI50 ([3]; all NCI subpanels, read-out: mean GI50 values of the NCI 60 subpanels, range) was 1.4 to 20.7 µM, the GI50 ([3]; equivalent to MID, read-out: Mean GI50 of all NCI-60 cell line panels) was 10.9 µM and the GI50 ([3]; five-dose, read-out: NCI-60 GI50 values, range over cell lines) was 0.33 to 72.8 µM. For the same compound, the Selectivity ratio ([3]; NCI Breast Cancer) was 2.14, the Selectivity ratio ([3]; NCI CNS Cancer) was 1.41 and the Selectivity ratio ([3]; NCI Colon Cancer) was 0.96. It also gave a Selectivity ratio ([3]; NCI Leukemia) of 7.79, a Selectivity ratio ([3]; NCI Melanoma) of 1.29 and a Selectivity ratio ([3]; NCI Non-Small Cell Lung Cancer) of 0.53. The Selectivity ratio ([3]; NCI Ovarian Cancer) was 1.61, the Selectivity ratio ([3]; NCI Prostate Cancer) was 1.28 and the Selectivity ratio ([3]; NCI Renal Cancer) was 0.59. For the same compound, the TGI (DMS273) was 4.1 µM, the GI50 (DMS273; Homo sapiens, DMS-273) was 2100 nM and the CC50 (DMS273; Homo sapiens, DMS-273, read-out: LC50 (the source's name)) was 8.1 µM. The GI50 (SF-268 [4]; [5]) was 1950 nM, the GI50 (SF-268 [4]; [6]) was 2070 nM and the CC50 (SF-268 [4]; [7]) was 13.9 µM. The TGI (SF-268 [4]; five-dose) was 4.83 µM, the TGI (MCF-7) was 3.9 µM and the GI50 (MCF-7; Homo sapiens, MCF7) was 1800 nM. The CC50 (MCF-7; Homo sapiens, MCF7, read-out: LC50 (the source's name)) was 8 µM, the GI50 (RPMI-8226; [5]) was 2.88 µM and the GI50 (RPMI-8226; [6]) was 3.15 µM. It also gave a CC50 (RPMI-8226; [7]) greater than 100 µM, a TGI (RPMI-8226; five-dose) of 53.2 µM and a GI50 (KM12; [5]) of 10.7 µM. It also gave a GI50 (KM12; [6]) of 12.9 µM, a CC50 (KM12; [7]) of 52.1 µM and a TGI (KM12; five-dose) of 25.9 µM. For the same compound, the GI50 (MDA-MB-231/ATCC; [5]) was 1170 nM, the GI50 (MDA-MB-231/ATCC; [6]) was 1320 nM and the CC50 (MDA-MB-231/ATCC; [7]) was 8.63 µM. For the same compound, the TGI (MDA-MB-231/ATCC; five-dose) was 3.37 µM and the TGI (OVCAR-3) was 3.23 µM.
